{
  "source": "patent US12274740B2",
  "about": "“Microbiome protection from oral antibiotics” (Theriva Biologics, Inc., priority 2016, dated 2025)",
  "key": {"[1]": {"test": "Two arm PK study in dogs: amoxicillin levels in dog serum with or without Formulation 2 (TABLE 17)", "assay_type": "in vivo, beagle dogs", "conditions": "for Amoxicillin levels in dog serum, 0.00 hr: pre-dose", "experimental": "Formulation 2 (TABLE 17) was chosen for evaluation in dogs. A two arm pharmacokinetics (PK) study was performed in three non-naïve male beagle dogs (age 2 years, approximately 12 kg). Animals were fasted overnight prior to the day of dosing in each arm. In Arm 1, the dogs were administered one dose of an amoxicillin suspension (amoxicillin powder, Sandoz, Lot FW1707, reconstituted in apple juice to 400 mg/5 ml) via oral gavage at 80 mg/kg. Animals were returned to their cages post-dose and fed 1.5 hrs after amoxicillin dosing. In Arm 2, dogs were administered an amoxicillin suspension (80 mg/kg, prepared as in Arm 1) via oral gavage. Immediately after the oral amoxicillin was dosed, the animals received one size 4 capsule of Formulation 2 (TABLE 17) containing 10 mg of SYN-004. The capsules were not chewed and were swallowed whole. Capsules were dosed by hand by placing the capsule in the back of the dog's mouth and followed by 6 mL of Mott's 100% apple juice in a syringe. Animals were returned to their cages post-dose and fed 1.5 hrs after amoxicillin dosing. There was a seven day washout period between the two arms. In both arms of the study, blood (approximately 2 mL) was collected for serum PK analysis at pre-dose, and 30 minutes, 1, 2, 3, 4, 6, 8, and 10 hrs post-dose. Serum was collected and immediately frozen at −80° C. Feed was ad-libitum throughout both arms, except during dosing, which was done fasted as described. […] Animals were returned to the colony following the last blood collection.\nSerum was analyzed for amoxicillin levels using a validated liquid chromatography (LC) method with tandem mass spectrometry detection (LC/MS/MS). Briefly, the serum samples were extracted using the protein precipitation extraction method and analyzed using reverse phase LC. Amoxicillin and amoxicillin-d4 (internal standard) were detected using tandem MS. The study was performed using Applied Biosystems Triple Quad API 500 LC/MS/MS system with Turbo ion spray interfaces. The data were acquired and analyzed by Applied Biosystems “Analyst” software, version 1.5. The lower limit of quantitation (LLOQ) for amoxicillin was 101.723 ng/ml. The upper limit of quantitation (ULOQ) for amoxicillin was 20344.678 ng/ml. A calibration curve consisting of two control blanks, two zero standards and ten non-zero standards, prepared in naïve dog serum, covering a range of 101.723 to 20344.678 ng/ml, were run with each sample batch. Amoxicillin levels were similar for each animal in Arm 1 and Arm 2 of the study (TABLE 19). The amoxicillin serum levels in Arm 1 and Arm 2 for each dog were plotted separately and the area under the curves was calculated (FIG. 25). The area under the curve for each animal was similar in Arm 1 and Arm 2 of the study. […] Therefore, the strategy to reduce the potential for premature release, release in the small intestine prior to absorption of orally-delivered amoxicillin, by using FS 30 D-coated SYN-004 layered sucrose pellets incorporated inside FS 30 D-coated capsule, or the “nested” strategy, was successful as indicated by the similar amoxicillin blood levels in each dog with and without SYN-004."}, "in vivo": {"test": "in vivo", "conditions": "Yorkshire, pig", "quoted_text": "A study was performed using normal piglets to compare the three, modified-release formulations of SYN-004 as described in Example 2, and the original SYN-004 formulation (Enteric pH 5.5) as described in Example 1, delivered orally with oral amoxicillin, to evaluate the effect on amoxicillin serum levels and protection of the microbiome from amoxicillin-induced dysbiosis (FIG. 20).\nA total of 25, two month old Yorkshire piglets, approximately 20 kg each, were used for this study. All 25 animals were treated with oral amoxicillin twice a day for a total of 7 days, in addition, Groups 2-5 received SYN-004 four times a data starting the day before amoxicillin treatment for a total of 9 days (TABLE 7).\nOn Study Day 0, Groups 2-5 (Pigs 6-25) received one size 0 capsule of one of each of the four SYN-004 formulations, containing 50 mg of SYN-004, orally, four times a day at 7 am, 12 pm, 5 pm, and 10 pm for a total of 9 days. Pigs were fed 3 times a day, after SYN-004 dosing at 7 am, after SYN-004 dosing at 12 pm, and after SYN-004 dosing at 5 pm. Beginning on Study Day 1, all groups, 1-5 (Pigs 1-25), received oral amoxicillin (fruit flavored oral suspension, Sandoz, NDC: 0781-6157-46, Lot #FB0703; 20 mg/kg) twice a day at 7 am and at 5 pm, for a total of 7 days. […]\nAmoxicillin levels in the pig serum were quantified using a validated liquid chromatography method with MS/MS detection."}, "[2]": {"test": "Piglet study of modified nested SYN-004 formulation with oral amoxicillin", "assay_type": "in vivo, Yorkshire piglets", "conditions": "pig serum three hours after oral amoxicillin 40 mg/kg", "experimental": "Formulation 2 (TABLE 17) capsules consisting of FS 30 D-coated SYN-004 pellets within FS 30 D-coated capsules were prepared for testing in normal piglets. For this formulation, size 9H gelatin capsules (small capsules, 2.7 mm diameter, 5 mm length) were filled with 3 pellets of FS 30 D-coated SYN-004 sucrose cores, then coated with FS 30 D. The coated 9H capsule containing the SYN-004 pellets was then inserted into a size 5 gelatin capsule for ease of delivery to the pigs (FIG. 26). Each FS 30 D-coated pellet of SYN-004 contained […] of SYN-004. Therefore, the total SYN-004 dose was 0.5 mg/size 5 gelatin capsule. The anticipated advantage of this nested strategy using the small 9H capsules is that the gelatin capsule will dissolve in the stomach, releasing the small FS 30 D-coated 9H capsule that is protected from stomach acid and is small enough to pass through the gastric pylorus without the need for stomach emptying. […] Amoxicillin levels were similar in animals treated with amoxicillin alone and with amoxicillin plus the SYN-004 (FIG. 27; TABLE 20)."}, "[3]": {"conditions": "Arm 1: amoxicillin 80 mg/kg oral gavage alone"}, "[4]": {"conditions": "Arm 2: amoxicillin 80 mg/kg + one capsule Formulation 2 (TABLE 17), 10 mg SYN-004"}},
  "note": "Where “and” joins values, the source holds several entries; their conditions need not be identical. Equal entries are not always repeated.",
  "data": [
    {"smiles": "CC1(C)S[C@@H]2[C@H](NC(=O)[C@H](N)c3ccc(O)cc3)C(=O)N2[C@H]1C(=O)O", "note": "[Amoxicillin]", "values": [
      {"measurement": "Amoxicillin levels in dog serum, 0.50 hr", "setting": "[1]; [3]", "value": "17908.396 ng/mL and 16720.439 ng/mL"},
      {"measurement": "Amoxicillin levels in dog serum, 0.00 hr", "setting": "[1]; [3]", "value": "BLQ (BLQ: Below lower limit of quantitation)"},
      {"measurement": "Amoxicillin levels in dog serum, 2.00 hr", "setting": "[1]; [4]", "value": "30317.167 ng/mL and 35935.251 ng/mL"},
      {"measurement": "Amoxicillin levels in dog serum, 0.00 hr", "setting": "[1]; [4]", "value": "BLQ (BLQ: Below lower limit of quantitation)"},
      {"measurement": "concentration at 10 h", "setting": "[1]; male, beagle, dog, serum, oral, 80 mg/kg, Arm 1: amoxicillin 80 mg/kg oral gavage alone", "value": 183, "unit": "ng/mL"},
      {"measurement": "concentration at 0.5 h", "setting": "[1]; male, beagle, dog, serum, oral, 80 mg/kg, Arm 1: amoxicillin 80 mg/kg oral gavage alone, read-out: Amoxicillin levels in dog serum, 0.50 hr", "value": 12600, "unit": "ng/mL"},
      {"measurement": "concentration at 2 h", "setting": "[1]; male, beagle, dog, serum, oral, Arm 2: amoxicillin 80 mg/kg + one capsule Formulation 2 (TABLE 17), 10 mg SYN-004", "value": 18700, "unit": "ng/mL"},
      {"measurement": "area under the curve, Arm 1 versus Arm 2", "setting": "[1]; serum amoxicillin, each animal", "value": "similar"},
      {"measurement": "concentration at 3 h", "setting": "in vivo; Amoxicillin (ng/ml) 3 hours", "value": "1160 to 2320", "unit": "ng/mL"},
      {"measurement": "concentration at 6 h", "setting": "in vivo; Amoxicillin (ng/ml) 6 hours", "value": "667 to 1160", "unit": "ng/mL"},
      {"measurement": "concentration at 3 h", "setting": "[2]; Yorkshire, pig, serum, oral, 40 mg/kg, Amoxicillin Serum Levels (ng/ml) Mean, alone or with SYN-004 0.5 mg, 5 pigs, heading: Amoxicillin Serum Levels Mean", "value": 182, "unit": "ng/mL"},
      {"measurement": "Amoxicillin Serum Levels (ng/ml), individual animal", "setting": "[2]; alone or with one capsule SYN-004 modified nested formulation (0.5 mg)", "value": "29647 ng/mL and 6498 ng/mL and 25130 ng/mL and 14936 ng/mL and 14757 ng/mL"}
    ]}
  ]
}
